# According to patent US7759384B2, “Carvedilol phosphate salts and/or solvates thereof, corresponding compositions, and/or methods of treatment” (SmithKline Beecham (Cork) Limited, priority 2002, dated 2010):
# Where two headings read alike, the source gives them in different places.
# Columns and labels:
# [1] = cited from earlier work
# [2] = aqueous solubility of carvedilol phosphate salts compared with free base and other salts; assay type: physicochemical; conditions: novel crystalline forms
smiles,measurement,setting,value
COc1ccccc1OCCNCC(O)COc1cccc2[nH]c3ccccc3c12 (racemic) [Carvedilol],solubility,"[1]; neutral or alkaline media, above a pH of 9.0",< 1 µg/mL
same,saturation solubility,"[1]; pH=5, room temperature",about 100 μg/mL
same,saturation solubility,"[1]; pH=7, room temperature",about 23 μg/mL
COc1ccccc1OCCNCC(O)COc1cccc2[nH]c3ccccc3c12.O=P(O)(O)O (centres unmarked) [carvedilol dihydrogen phosphate],solubility compared to the free base of carvedilol,[2],much higher solubility
COc1ccccc1OCCNCC(O)COc1cccc2[nH]c3ccccc3c12.Cl (centres unmarked) [hydrochloride salt of carvedilol],solubility in acidic medium,"[1]; salt generated in situ in acidic medium, which simulates gastric fluid",less soluble
